Assay results as given in patent publication US20240124442A1, “TRICYCLIC-AMIDO-BICYCLIC PRMT5 INHIBITORS” (AMGEN INC., priority 2021, published 2024).

What was measured:
HCT116 WT cells = assay: HCT116 WT (parent) cell line proliferation / cell viability (CellTiter-Glo, 6 days); type: cell-based; conditions: Homo sapiens, HCT-116, 144 h, 6 days treatment
Summary of the method: (§1)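 Isogenic HCT116 pair (parental and MTAP-knockout) in RPMI 1640 + 10% FBS, treated 6 days with 8–9-point 1:3 dilutions from 1 or 10 μM top, or 22-point 1:2 dilutions from 10 or 50 μM top. Viability by CellTiter-Glo luminescence; IC50 from 4-parameter logistic fit or sigmoidal fit with Hill slope fixed at −1.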

HCT116 MTAP null cells = assay: HCT116 MTAP null cell line proliferation / cell viability (CellTiter-Glo, 6 days); type: cell-based; conditions: 144 h; HCT116 MTAP null cells, 6 days treatment, CellTiter-Glo cell viability; read-out: HCT-116 MTAP null IC50
Summary of the method: as §1

Row | Structure (SMILES) | IC50 (HCT116 WT cells) [nM] | IC50 (HCT116 MTAP null cells) [nM]
1 | Cn1ncc2c(N)nc3cc(F)c(C(=O)N(C4CC4)[C@@H]4COc5cc(C(F)(F)F)ccc54)cc3c21 [Example 200, (S)-4-amino-N-cyclopropyl-7-fluoro-1-methyl-N-(6-(trifluoromethyl)-2,3-dihydrobenzofuran-3-yl)-1H-pyrazolo[4,3-c]quinoline-8-carboxamide] | 112 | 8
2 | CN(C(=O)c1ccc2nc(N)c3cnn(C)c3c2c1)[C@H]1COCc2cc(Br)ccc21 (single isomer, unassigned) [Example 413] | 7990 | 360
3 | CN(C(=O)c1ccc2nc(N)c3cnn(C)c3c2c1)[C@@H]1COc2cc(-c3cncc(C(F)(F)F)c3)ccc21 [Example 651, 4-amino-N,1-dimethyl-N-((3S)-6-(5-(trifluoromethyl)-3-pyridinyl)-2,3-dihydro-1-benzofuran-3-yl)-1H-pyrazolo[4,3-c]quinoline-8-carboxamide] | 724 | 7
4 | COc1ccc2c(n1)COC[C@@H]2N(C)C(=O)c1ccc2nc(N)c3cnn(C)c3c2c1 [Example 284, 4-amino-N-((5R)-2-methoxy-5,8-dihydro-6H-pyrano[3,4-b]-pyridin-5-yl)-N,1-dimethyl-1H-pyrazolo[4,3-c]quinoline-8-carboxamide] | 15600 | 674
5 | CN(C(=O)c1cc2c3c(c(N)nc2cn1)COC3)[C@@H]1COc2cc(C(F)(F)F)ncc21 (single isomer, unassigned) [Example 542] | 46000 | 785
6 | [2H]C([2H])([2H])N(C(=O)c1ccc2nc(N)c3c(c2c1)COC3)[C@H]1COc2cc(C(F)(F)F)ccc21 (single isomer, unassigned) [Example 321] | 20100 | 2660
7 | CN(C(=O)c1cc2c3c(c(N)nc2cn1)COC3)[C@@H]1COCc2cc(C(F)(F)F)ncc21 [Example 492, 4-amino-N-methyl-N-((4S)-7-(trifluoromethyl)-3,4-dihydro-1H-pyrano[4,3-c]pyridin-4-yl)-1,3-dihydrofuro[3,4-c][1,7]naphthyridine-8-carboxamide] | 31400 | 706
8 | Cc1nn(C)c2c1c(N)nc1cnc(C(=O)N(C)[C@@H]3COc4cc(S(F)(F)(F)(F)F)ccc43)cc12 [Example 266, 4-amino-N,1,3-trimethyl-N-((3S)-6-(pentafluoro-lambda~6~-sulfanyl)-2,3-dihydro-1-benzofuran-3-yl)-1H-pyrazolo[4,3-c][1,7]naph-thyridine-8-carboxamide] | 2660 | 70
9 | CN(C(=O)c1cc2c(cc1F)nc(N)c1c2cnn1C)[C@@H]1COc2cc(Cl)c(Cl)cc21 [Example 483, 4-amino-N-((3S)-5,6-dichloro-2,3-dihydro-1-benzofuran-3-yl)-7-fluoro-N,3-dimethyl-3H-pyrazolo[3,4-c]quinoline-8-carboxamide] | 5280 | 81
10 | CN(C(=O)c1cc2c3c(c(N)nc2cc1F)COC3)C1COc2cc(Br)cnc21 (racemic) [Example 465, 4-amino-N-((3R)-6-bromo-2,3-dihydrofuro[3,2-b]pyridin-3-yl)-7-fluoro-N-methyl-1,3-dihydrofuro[3,4-c]quinoline-8-carboxamide and 4-amino-N-((3S)-6-bromo-2,3-dihydrofuro[3,2-b]pyridin-3-yl)-7-fluoro-N-methyl-1,3-dihydrofuro[3,4-c]quinoline-8-carboxamide] | 32200 | 1420
11 | CN(C(=O)c1cc2c3c(c(N)nc2cn1)COC3)[C@@H]1COc2cc(C(F)(F)F)ccc21 (single isomer, unassigned) [Example 522] | 2470 | 63
12 | Cc1nn(C)c2c1c(N)nc1cnc(C(=O)N(C)[C@@H]3COCc4cc(C(F)(F)F)ccc43)cc12 [Example 311, 4-amino-N,1,3-trimethyl-N-((4S)-7-(trifluoromethyl)-3,4-dihydro-1H-2-benzopyran-4-yl)-1H-pyrazolo[4,3-c][1,7]-naphthyridine-8-carboxamide] | 1020 | 30
13 | CN(C(=O)c1cc2c3c(c(N)nc2cc1Cl)COC3)[C@@H]1COCc2nc(C#N)ccc21 (single isomer, unassigned) [Example 402] | 436 | 8
14 | CN(C(=O)c1ccc2nc(N)c3c(c2c1)COC3)[C@H]1COCc2cc(Br)ccc21 (single isomer, unassigned) [Example 609] | 7800 | 598
15 | CN(C(=O)c1cc2c3c(c(N)nc2cc1F)COC3)[C@@H]1COc2cc(Cl)ccc21 (single isomer, unassigned) [Example 347] | 3220 | 86
16 | CN(C(=O)c1cc2c3c(c(N)nc2cn1)COC3)[C@@H]1COc2cc(Cl)c(C(F)(F)F)cc21 (single isomer, unassigned) [Example 548] | 3060 | 58
17 | CN(C(=O)c1ccc2nc(N)c3c(c2c1)COC3)C1COc2cc(C#N)ccc21 (racemic) [Example 201, 4-amino-N-((3R)-6-cyano-2,3-dihydro-1-benzofuran-3-yl)-N-methyl-1,3-dihydrofuro[3,4-c]quinoline-8-carboxamide and 4-amino-N-((3S)-6-cyano-2,3-dihydro-1-benzofuran-3-yl)-N-methyl-1,3-dihydrofuro[3,4-c]quinoline-8-carboxamide] | 5820 | 149

The remaining lines, values ahead:

Row | IC50 (HCT116 WT cells) [nM] | IC50 (HCT116 MTAP null cells) [nM] | Structure (SMILES)
18 | 15000 | 427 | CN(C(=O)c1cc2c3c(c(N)nc2cc1F)COC3)C1c2ccc(C(F)(F)F)nc2CC1(F)F (racemic) [Example 215, 4-amino-N-((5R)-6,6-difluoro-2-(trifluoromethyl)-6,7-dihydro-5H-cyclopenta[b]-pyridin-5-yl)-7-fluoro-N-methyl-1,3-dihydrofuro[3,4-c]-quinoline-8-carboxamide and 4-amino-N-((5S)-6,6-difluoro-2-(trifluoromethyl)-6,7-dihydro-5H-cyclopenta[b]pyridin-5-yl)-7-fluoro-N-methyl-1,3-dihydro-furo[3,4-c] quinoline-8-carboxamide]
19 | 23 | 2 | Cc1cc2nc(N)c3cnn(C)c3c2cc1C(=O)N(C)[C@@H]1COCc2c1ccc(C(F)(F)F)c2F (single isomer, unassigned) [Example 436]
20 | 4940 | 403 | Cc1noc2c1c(N)nc1cc(F)c(C(=O)N(C)[C@@H]3COc4cc(C(F)(F)F)ccc43)cc12 [Example 225, 4-amino-7-fluoro-N,3-dimeth-yl-N-((3S)-6-(trifluoromethyl)-2,3-dihydro-1-benzofuran-3-yl)[1,2]oxazolo[4,5-c]quin-oline-8-carboxamide]
21 | 838 | 13 | CN(C(=O)c1cc2c3c(c(N)nc2cc1C#N)COC3)[C@@H]1COc2cc(C(F)(F)F)ccc21 [Example 218, 4-amino-7-cyano-N-methyl-N-((3S)-6-(trifluoromethyl)-2,3-dihydro-1-benzofuran-3-yl)-1,3-dihydrofuro[3,4-c]quin-oline-8-carboxamide]
22 | 1390 | 27 | CN(C(=O)c1cc2c(cc1Cl)nc(N)c1c2cnn1C)[C@@H]1COCc2nc(C(F)(F)F)ccc21 [Example 519, 4-amino-7-chloro-N,3-dimethyl-N-((5S)-2-(trifluoromethyl)-5,8-dihydro-6H-pyrano[3,4-b]pyridin-5-yl)-3H-pyrazolo[3,4-c]quinoline-8-carboxamide]
23 | 7210 | 305 | CN(C(=O)c1cc2c(cc1F)nc(N)c1cnn(C)c12)[C@H]1COCc2cc(C(F)(F)F)ncc21 [Example 293, 4-amino-7-fluoro-N,1-dimethyl-N-((4R)-7-(trifluoromethyl)-3,4-dihydro-1H-pyrano[4,3-c]-pyridin-4-yl)-1H-pyrazolo[4,3-c]quinoline-8-carboxamide]
24 | 42300 | 810 | C[C@H]1OCc2c1c(N)nc1cc(F)c(C(=O)N(C)[C@H]3CCc4nc(C(F)(F)F)ccc43)cc21 (single isomer, unassigned) [Example 360]
25 | 202 | 5 | Cc1cc2nc(N)c3c(c2cc1C(=O)N(C)[C@@H]1COCc2nc(C(F)(F)F)ccc21)COC3 [Example 277, 4-amino-N,7-dimethyl-N-((5S)-2-(trifluoromethyl)-5,8-dihydro-6H-pyrano[3,4-b]pyridin-5-yl)-1,3-dihydrofuro[3,4-c]quin-oline-8-carboxamide]
26 | 8480 | 610 | CN(C(=O)c1cc2c(cc1F)nc(N)c1cnn(C)c12)C1c2ccc(C(F)(F)F)nc2CC1(F)F (racemic) [Example 246, 4-amino-N-((5R)-6,6-difluoro-2-(trifluoromethyl)-6,7-dihydro-5H-cyclopenta[b]-pyridin-5-yl)-7-fluoro-N,1-dimethyl-1H-pyrazolo[4,3-c]-quinoline-8-carboxamide and 4-amino-N-((5S)-6,6-difluoro-2-(trifluoromethyl)-6,7-dihydro-5H-cyclopenta[b]pyridin-5-yl)-7-fluoro-N,1-dimethyl-1H-pyrazolo[4,3-c]quinoline-8-carboxamide]
27 | 6570 | 148 | CN(C(=O)c1cc2c3c(c(N)nc2cc1F)COC3)[C@@H]1CCOc2cc(C(F)(F)F)ccc21 (single isomer, unassigned) [Example 401]
28 | 25100 | 1960 | CN(C(=O)c1cc2c3c(c(N)nc2cc1Cl)COC3)[C@H]1COc2nc(C(F)(F)F)ccc21 (single isomer, unassigned) [Example 563]
29 | 12800 | 882 | CN(C(=O)c1cc2c(cc1F)nc(N)c1cnn(C)c12)[C@H]1CCc2nc(C(F)(F)F)ccc21 (single isomer, unassigned) [Example 376]
30 | 1230 | 17 | C[C@H]1OCc2c1c(N)nc1cc(F)c(C(=O)N(C)[C@@H]3CCc4nc(C(F)(F)F)ccc43)cc21 (single isomer, unassigned) [Example 359]
